The values below come from patent publication US20160051536A1, “COMPOSITIONS TO ALLEVIATE PRESYSTEMIC METABOLISM OF OPIOIDS” (VIRGINIA COMMONWEALTH UNIVERSITY, priority 2013, published 2016).

Test system in one data set: not given
Assay: not given
The conditions noted are these: in words; cited from earlier work.
On to `C=CCN1CC[C@]23c4c5ccc(O)c4O[C@H]2C(=O)CC[C@@]3(O)[C@H]1C5` [naloxone], for which the oral bioavailability entry was “low”.

In a further data set the test system is UGT. As to the kind of experiment: Effect of inhibitors on buprenorphine-glucuronide formation in LS180 cells. The following applies: buprenorphine 10 μM, inhibitor 100 μM, 2 hours, vs control, p<0.05, n.d. = glucuronide not detected.
Procedure: Unless otherwise indicated, the in vitro experiments described in the following section were conducted using human colon adenocarcinoma LS180 cells.
Human intestinal cells (LS180) were cultured in Dulbecco's modified Eagle's medium (DMEM) supplemented with 10% fetal bovine serum and 1% non-essential amino acids in microplates. […] The cells were rinsed with DPBS, aspirated, and the solutions (37° C.) were added to the cells and incubated for 2 hours. The reactions were stopped and protein was precipitated by adding 20% acetonitrile. After freezing (−80° C.) and thawing, samples were centrifuged and analyzed by HPLC using an Alltima HP C18 column (4.6×100 mm, 3 μm) with gradient elution (mobile phase A: acetonitrile; mobile phase B: 10% acetonitrile, 90% aqueous 25 mM ammonium acetate; 0-78% A) followed by detection by fluoresence (excitation 283 nm, emission 346 nm) and quantitation using Waters Empower 2 software. Results were analyzed by one-way ANOVA with Dunnett's post-test (control vs. inhibitors); asterisk designates p<0.05; n.d. designates not detected.
`CCOc1cc(C=O)ccc1O` [ethyl vanillin]: the “formation of buprenorphine glucuronide” value was “significantly decreased”.

In the case of `COc1ccccc1O` [guaiacol], the “formation of buprenorphine glucuronide” value was “significantly decreased”.

Turning to `COc1cc(C=O)ccc1O` [vanillin], the “formation of buprenorphine glucuronide” value is recorded as “significantly decreased”. On the same count and under the same terms, to `COc1cc(CCC(C)=O)ccc1O` [zingerone] belongs “significantly decreased”. With `CCCOC(=O)c1cc(O)c(O)c(O)c1` [propyl gallate], the “formation of buprenorphine glucuronide” value was “not detected”. Regarding `CC(=O)CCc1ccc(O)cc1` [rasketone], the “formation of buprenorphine glucuronide” value was “significantly decreased”.

Take `COc1c(O)cc2oc3cc(O)c(CC=C(C)C)c(O)c3c(=O)c2c1CC=C(C)C` [α-mangostin]: the “formation of buprenorphine glucuronide” value was “significantly decreased”. Still for that read-out and setting: to `CCCOC(=O)c1ccc(O)cc1` [propylparaben] belongs “significantly decreased”; to `O=c1c(O)c(-c2ccc(O)c(O)c2)oc2cc(O)cc(O)c12` [quercetin], “not detected”. Same read-out and setting: to `C=CCc1ccc(O)c(OC)c1` [eugenol] belongs “significantly decreased”. On the same count and under the same terms, with `COC(=O)c1ccc(O)cc1` [methylparaben] the entry was “trend toward a decrease”; with `COc1cc(/C=C/C(=O)CC(=O)/C=C/c2ccc(O)c(OC)c2)ccc1O` [curcumin], “not detected”.

Consider `CCOc1cc(C2OCC(C)O2)ccc1O` (stereo not shown) [ethyl vanillin propylene glycol acetal], for which the “formation of buprenorphine glucuronide” value is listed as “significantly decreased”. Same read-out and setting: to `C=CCc1ccc(O)c(-c2cc(CC=C)ccc2O)c1` [magnolol] belongs “significantly decreased”; to pinoresinol, “not detected”.

In the case of `Oc1ccc(C=Cc2cc(O)cc(O)c2)cc1` [resveratrol], the “formation of buprenorphine glucuronide” value is listed as “not detected”.

Regarding `CC=Cc1ccc(O)c(OC)c1` [isoeugenol], the “formation of buprenorphine glucuronide” value is “not detected”. Same read-out and setting: to `COc1cc(C2Oc3cc([C@H]4Oc5cc(O)cc(O)c5C(=O)[C@@H]4O)ccc3OC2CO)ccc1O` (stereo partly shown) [silybin] belongs “significantly decreased”.

The same data set, now with this note: buprenorphine 10 μM, single inhibitors 24 μM, pairs 12 μM each, triple 8 μM each, p<0.05.
Regarding `COc1cc(C=O)ccc1O` [vanillin], the “formation of buprenorphine glucuronide” value is on record as “significantly inhibited”. For `CCCOC(=O)c1cc(O)c(O)c(O)c1` [propyl gallate], the “formation of buprenorphine glucuronide” value is “significantly inhibited”. `CC=Cc1ccc(O)c(OC)c1` [isoeugenol]: the “formation of buprenorphine glucuronide” value is on record as “significantly inhibited”.
